Experiments:
[1] = system: Monographella nivalis (Microdochium nivale); assay: Monographella nivalis (Microdochium nivale) / liquid culture (foot rot cereals); assay type: cell-based; details: at ≦200 ppm, liquid culture PDB, inhibition of growth photometrically 4-5 days after application, read-out: control of Monographella nivalis
Procedure: Monographella nivalis (Microdochium nivale)/Liquid Culture (Foot Rot Cereals): Conidia of the fungus from cryogenic storage were directly mixed into nutrient broth (PDB potato dextrose broth). After placing a DMSO solution of test compound into a 96-well microtiter plate, the nutrient broth containing the fungal spores was added. The test plates were incubated at 24° C. and the inhibition of growth was determined photometrically 4-5 days after application. […].57; 2.513; 2.559; 2.558; 2.556; 2.555; 2.374; 2.553; 2.551 (fraction B); 2.551 (fraction A); 2.548; 2.544; 2.542; 2.541; 2.539; 2.536; 2.535; 2.533; 2.530; 2.528; 2.526; 2.525 (fraction B); 2.525 (fraction A); 2.524; 2.519; 2.518; 2.516; 2.514; E/E-5.167; 2.512; 2.514

[2] = system: Thanatephorus cucumeris (Rhizoctonia solani); assay: Thanatephorus cucumeris (Rhizoctonia solani) / liquid culture (foot rot, damping-off); assay type: cell-based; details: at ≦200 ppm, liquid culture PDB, inhibition of growth photometrically 3-4 days after application, read-out: control of Thanatephorus cucumeris
Procedure: Thanatephorus cucumeris (Rhizoctonia solani)/Liquid Culture (Foot Rot, Damping-Off Mycelia fragments of a newly grown liquid culture of the fungus are directly mixed into nutrient broth (PDB potato dextrose broth). After placing a DMSO solution of the test compounds into a 96-well microtiter, the nutrient broth containing the fungal material was added. The test plates were incubated at 24° C. and the inhibition of growth was determined photometrically 3-4 days after application. […]-2.508 5.561; 2.561; P.57; 2.513; 2.559; 2.558; 2.553; 2.533; 2.530; 2.526; 2.519; 2.517; 2.516; 2.514; 2.512; 2.514

Gaeumannomyces graminis = Gaeumannomyces graminis / liquid culture (take-all of cereals); assay type: cell-based; details: at ≦200 ppm, liquid culture PDB, inhibition of growth photometrically 4-5 days after application, read-out: control of Gaeumannomyces graminis
Procedure: Gaeumannomyces graminis/Liquid Culture (Take-All of Cereals): Mycelial fragments of the fungus from cryogenic storage were directly mixed into nutrient broth (PDB potato dextrose broth). After placing a DMSO solution of test compound into a 96-well microtiter plate, the nutrient broth containing the fungal spores is added. The test plates were incubated at 24° C. and the inhibition of growth was determined photometrically 4-5 days after application. […]-2.509; 5.561; 2.561; P.57; 2.513; 2.559; 2.558; 2.557; 2.556; 2.555; 2.374; 2.553; 2.552; 2.551 (fraction B); 2.551 (fraction A); 2.539; 2.533; 2.528; 2.526; 2.525 (fraction B); 2.525 (fraction A); 2.524; 2.523; 2.521; 2.520; 2.519; 2.510; 2.518; 2.516; 2.514; E/E-5.167; E/E-3.002; 2.512; E/E-2.508

[3] = system: Mycosphaerella graminicola (Septoria tritici); assay: Mycosphaerella graminicola (Septoria tritici) / liquid culture (Septoria blotch); assay type: cell-based; details: Zymoseptoria tritici; at ≦200 ppm, liquid culture PDB, inhibition of growth photometrically 4-5 days after application; read-out: control of Mycosphaerella graminicola
[4] = system: Mycosphaerella arachidis (Cercospora arachidicola); assay: Mycosphaerella arachidis (Cercospora arachidicola) / liquid culture (early leaf spot); assay type: cell-based; details: at ≦200 ppm, liquid culture PDB, inhibition of growth photometrically 4-5 days after application, read-out: control of Mycosphaerella arachidis
Procedure: Mycosphaerella arachidis (Cercospora arachidicola)/Liquid Culture (Early Leaf Spot): Conidia of the fungus from cryogenic storage were directly mixed into nutrient broth (PDB potato dextrose broth). After placing a DMSO solution of test compound into a 96-well microtiter plate, the nutrient broth containing the fungal spores was added. The test plates are incubated at 24° C. and the inhibition of growth was determined photometrically 4-5 days after application. […]-2.509; 5.561; 2.561; P.57; 2.513; 2.559; 2.558; 2.557; 2.556; 2.555; 2.374; 2.553; 2.552; 2.551 (fraction B); 2.551 (fraction A); 2.544; 2.541; 2.539; 2.537; 2.536; 2.533; 2.532; 2.531; 2.530; 2.528; 2.526; 2.525 (fraction B); 2.525 (fraction A); 2.524; 2.520; 2.519; 2.510; 2.518; 2.517; 2.516; 2.514; […].002; 2.512; 2.511; 2.514

[5] = system: Blumeria graminis f. sp. tritici (Erysiphe graminis f. sp. tritici); assay: Blumeria graminis f. sp. tritici / wheat / leaf disc preventative (powdery mildew on wheat); assay type: in vivo; details: foliar, wheat leaf segments cv. Kanzler, inoculated 1 day after application, assessed 6-8 days after application
Procedure: Blumeria graminis f. sp. tritici (Erysiphe graminis f. sp. tritici)/Wheat/Leaf Disc Preventative (Powdery Mildew on Wheat):
Wheat leaf segments cv. Kanzler were placed on agar in a 24-well plate and sprayed with the formulated test compound diluted in water at an application rate of 200 ppm. The leaf disks were inoculated by shaking powdery mildew infected plants above the test plates 1 day after application. The inoculated leaf disks were incubated at 20° C. and 60% relative humidity under a light regime of 24 h darkness followed by 12 h/12 h (dark/light) in a climate chamber and the activity of a compound was assessed as percent disease control compared to untreated when an appropriate level of disease damage appears on untreated check leaf segments (6-8 days after application). The following compounds gave at least 80% control of Blumeria graminis: E/E-2.168, E/E-2.474, E/E-2.002; 5.561; 2.561; E/E-2.208; 2.513; 2.559; 2.557; 2.556; 2.555; 2.374; 2.552; 2.537; 2.533; 2.530; 2.528; 2.526; 2.519; 2.510; 2.516; 2.514; E/E-5.167; E/E-3.002; 2.512; 2.511

[6] = system: Phaeosphaeria nodorum (Septoria nodorum); assay: Phaeosphaeria nodorum (Septoria nodorum) / wheat / leaf disc preventative (glume blotch); assay type: in vivo; details: Parastagonospora nodorum, foliar, wheat leaf segments cv Kanzler, inoculated 2 days after application, assessed 5-7 days after application
Procedure: Phaeosphaeria nodorum (Septoria nodorum)/Wheat/Leaf Disc Preventative (Glume Blotch): Wheat leaf segments cv Kanzler were placed on agar in a 24-well plate and sprayed with formulated test compound diluted in water at an application rate of 200 ppm. The leaf disks are inoculated with a spore suspension of the fungus 2 days after application. The inoculated test leaf disks are incubated at 20° C. and 75% relative humidity under a light regime of 12/12 h (light/dark) in a climate cabinet and the activity of a compound is assessed as percent disease control compared to untreated when an appropriate level of disease damage appears in untreated check leaf disks (5-7 days after application). […]-2.508; 5.561; 2.561; E/E-2.208; P.57; 2.513; 2.559; 2.558; 2.557; 2.556; 2.555; 2.374; 2.544; 2.541; 2.539; 2.537; 2.536; 2.535; 2.533; 2.530; 2.526; 2.519; 2.510; 2.516; 2.514; E/E-5.167; E/E-3.002; 2.512

Glomerella lagenarium = Glomerella lagenarium (Colletotrichum lagenarium) / liquid culture (anthracnose); assay type: cell-based; details: Colletotrichum orbiculare; at ≦200 ppm, liquid culture PDB, inhibition of growth photometrically 3-4 days after application; read-out: control of Glomerella lagenarium
Procedure: Glomerella lagenarium (Colletotfichum lagenarium)/Liquid Culture (Anthracnose): Conidia of the fungus from cryogenic storage were directly mixed into nutrient broth (PDB potato dextrose broth). After placing a DMSO solution of test compound into a 96-well microtiter, the nutrient broth containing the fungal spores was added. The test plates were incubated at 24° C. and the inhibition of growth is measured photometrically 3-4 days after application. […]-2.509; 5.561; 2.561; E/E-2.208; P.57; 2.513; 2.559; 2.556; 2.555; 2.374; 2.552; 2.548; 2.544; 2.541; 2.540; 2.539; 2.537; 2.536; 2.533; 2.531; 2.530; 2.528; 2.526; 2.519; 2.510; 2.516; 2.514; E/E-5.167; E/E-3.002; 2.512; 2.514; Z/E-2.474

Pyrenophora teres = Pyrenophora teres / barley / leaf disc preventative (net blotch); assay type: in vivo; details: foliar, barley leaf segments cv Hasso, inoculated two days after application, assessed 5-7 days after application
Procedure: Pyrenophora teres/Barley/Leaf Disc Preventative (Net Blotch): Barley leaf segments cv Hasso are placed on agar in a 24-well plate and sprayed with formulated test compound diluted in water at an application rate of 200 ppm. The leaf segments are inoculated with a spore suspension of the fungus two days after application of the test solution. The inoculated leaf segments are incubated at 20° C. and 65% relative humidity under a light regime of 12/12 h (light/dark) in a climate cabinet and the activity of a compound is assessed as disease control compared to untreated when an appropriate level of disease damage appears in untreated check leaf segments (5-7 days after application). […]-2.507; 5.561; 2.561; E/E-2.208; P.57; 2.513; 2.559; 2.558; 2.556; 2.555; 2.374; 2.552; 2.544; 2.537; 2.533; 2.530; 2.528; 2.519; 2.510; 2.516; 2.514; E/E-5.167; E/E-3.002; 2.512

Cc1ccc2c(n1)/C(=N/OCC(C)(C)CO/N=C/c1ccc(OCc3ccccc3)cn1)CCC2 [Compound 2.553]
≥ 80%: inhibition of growth at up to 200 µg/mL [1] | inhibition of growth at up to 200 µg/mL [2] | inhibition of growth at up to 200 µg/mL (Gaeumannomyces graminis) | inhibition of growth at up to 200 µg/mL [3] | inhibition of growth at up to 200 µg/mL [4]

CCOC(=O)c1ccc(C)c(/C(C)=N/OCC(C)(C)CO/N=C2\CCCc3ccc(C)nc32)n1 [Compound 2.526]
≥ 80%: pest or weed control at 200 ppm [5] | inhibition of growth at up to 200 µg/mL [1] | inhibition of growth at up to 200 µg/mL [2] | pest or weed control at 200 ppm [6] | inhibition of growth at up to 200 µg/mL (Glomerella lagenarium) | inhibition of growth at up to 200 µg/mL (Gaeumannomyces graminis) | inhibition of growth at up to 200 µg/mL [3] | inhibition of growth at up to 200 µg/mL [4]

C/C(=N\OCC(C)(C)CO/N=C1\CCCc2ccc(C#CCO)nc21)c1cc(C)cc(C)n1 [Compound 2.558]
≥ 80%: inhibition of growth at up to 200 µg/mL [1] | inhibition of growth at up to 200 µg/mL [2] | pest or weed control at 200 ppm [6] | pest or weed control at 200 ppm (Pyrenophora teres) | inhibition of growth at up to 200 µg/mL (Gaeumannomyces graminis) | inhibition of growth at up to 200 µg/mL [3] | inhibition of growth at up to 200 µg/mL [4]
